This passage reports IC50 and melting point results from patent US20100137275A1 (IPSEN PHARMA S.A.S., priority 2007, published 2010).

The structures appear in SMILES notation. Where only a bound is given, the exact number is not on record here.

The target in series [1] is T1, purified recombinant Cdc25-C enzyme (MBP-Cdc25C protein) (Homo sapiens, UniProt P30307).
T1 construct: made in house
T1 sequence (P30307 1-473): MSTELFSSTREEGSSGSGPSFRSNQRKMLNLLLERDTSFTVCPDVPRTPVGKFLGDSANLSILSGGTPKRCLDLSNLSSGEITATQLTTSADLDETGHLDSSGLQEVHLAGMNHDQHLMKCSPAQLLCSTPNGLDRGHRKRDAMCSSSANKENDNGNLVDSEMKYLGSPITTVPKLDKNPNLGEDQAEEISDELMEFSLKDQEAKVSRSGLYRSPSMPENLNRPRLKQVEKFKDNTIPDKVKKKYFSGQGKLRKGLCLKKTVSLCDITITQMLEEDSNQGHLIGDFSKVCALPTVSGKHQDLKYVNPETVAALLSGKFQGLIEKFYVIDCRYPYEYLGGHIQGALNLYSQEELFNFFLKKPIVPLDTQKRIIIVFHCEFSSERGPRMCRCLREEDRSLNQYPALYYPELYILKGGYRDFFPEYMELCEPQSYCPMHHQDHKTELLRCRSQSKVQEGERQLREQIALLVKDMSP
Put plainly: Phosphatase activity of the purified recombinant Cdc25C enzyme (OMFP dephosphorylation, fluorescence). Format: biochemical. The settings on record: OMFP 500 μM, 4 hours at 30° C. As for the experimental part:
The phosphatase activity of the MBP-Cdc25C protein is evaluated through its dephosphorylation of 3-O-methylfluorescein-phosphate (OMFP) to form 3-O-methylfluorescein (OMF), determining the fluorescence of the reaction product at 475 nm. This assay can be used to identify inhibitors of the recombinant Cdc25 enzyme. The preparation of the MBP-Cdc25C fusion protein is described in patent application PCT WO 01/44467.
The reaction is performed in 384-well plates in a final volume of 50 μl. The MBP-Cdc25C protein (prepared as described hereinabove) is stored in the following elution buffer: 20 mM Tris-HCl pH 7.4; 250 mM NaCl; 1 mM EDTA; 1 mM dithiothreitol (DTT); 10 mM maltose. It is diluted to a concentration of 60 μM in the following reaction buffer: 50 mM Tris-HCl pH 8.2; 50 mM NaCl; 1 mM DTT; 20% glycerol. The background noise is determined using with the buffer without addition of the enzyme. The products are tested at decreasing concentrations from 40 μM. The reaction is initiated by the addition of a solution OMFP to a final concentration of 500 μM (prepared immediately before use from a 12.5 mM stock solution in 100% DMSO (Sigma #M2629)). After 4 hours at 30° C. in a disposable 384-well plate, the fluorescence measured at OD 475 nm is read on a Victor^2 plate reader (EGG-Wallac). The concentration that produces 50% inhibition of the enzyme reaction is calculated from three independent experiments. Only the values that fall within the linear part of the sigmoid curve are used for the linear regression analysis.

As usually defined, the IC50 is the point on the concentration scale where inhibition reaches its midpoint. For orientation: melting point means the temperature of the solid-liquid transition.

In turn, `CN(CCNC(=O)NCc1ccccc1)CCNc1cc(N2CCCC2)nc(N2CCCC2)n1` [Example 8, N-benzyl-N′-{2-[{2-[(2,6-dipyrrolidin-1-ylpyrimidin-4-yl)amino]ethyl}(methyl)amino]ethyl}urea] registered a melting point of 87 to 89 °C. For the same compound, the 50% inhibitory concentration (IC50) in series [1] was at most 5 µM. Compound `FC(F)(F)c1cc(NC(=S)NCCCCCNc2cc(N3CCCC3)nc(N3CCCC3)n2)ccc1Cl` [Example 57, N-[4-chloro-3-(trifluoromethyl)phenyl]-N′-{5-[(2,6-dipyrrolidin-1-ylpyrimidin-4-yl)amino]pentyl}thiourea] had a melting point of 85 to 87 °C.

For the compound `CN(C)CCCCCNc1cc(N2CCCC2)nc(N2CCCC2)n1` [Example 5, N′-(2,6-dipyrrolidin-1-ylpyrimidin-4-yl)-N,N-dimethylpentane-1,5-diamine], the IC50 in series [1] was at most 5 µM. Compound `CN(CCNC(=O)NC1CCCC1)CCNc1cc(N2CCCC2)nc(N2CCCC2)n1` [Example 12, N-cyclopentyl-N′-{2-[{2-[(2,6-dipyrrolidin-1-ylpyrimidin-4-yl)amino]ethyl}(methyl)amino]ethyl}urea] came in with a melting point of 119 to 121 °C. The half-maximal inhibitory concentration (IC50) in series [1] is at most 5 µM. Regarding `CN(CCCN)CCCNc1cc(N2CCCC2)nc(N2CCCC2)n1` [Example 2, N-(3-aminopropyl)-N′-(2,6-dipyrrolidin-1-ylpyrimidin-4-yl)-N-methylpropane-1,3-diamine], the 50% inhibitory concentration (IC50) in series [1] was at most 5 µM.

As for `CN(CCNC(=S)Nc1ccc(Sc2ncc(C(F)(F)F)cc2Cl)cc1)CCNc1cc(N2CCCC2)nc(N2CCCC2)n1` [Example 52, N-(4-{[3-chloro-5-(trifluoromethyl)pyridin-2-yl]thio}phenyl)-N′-{2-[{2-[(2,6-dipyrrolidin-1-ylpyrimidin-4-yl)amino]ethyl}(methyl)amino]ethyl}thiourea], the melting point lay within 97 to 99 °C. The IC50 in series [1] was at most 1 µM. The compound `CN(CCNC(=O)c1cnc2ccccc2n1)CCNc1cc(N2CCCC2)nc(N2CCCC2)n1` [Example 82, N-{2-[{2-[(2,6-dipyrrolidin-1-ylpyrimidin-4-yl)amino]ethyl}(methyl)amino]ethyl}quinoxaline-2-carboxamide] registered a melting point of 146 to 148 °C.

For `Cc1cc(C)nc(NS(=O)(=O)c2ccc(NC(=S)NCCN(C)CCNc3cc(N4CCCC4)nc(N4CCCC4)n3)cc2)n1` [Example 50, N-(4,6-dimethylpyrimidin-2-yl)-4-{[({2-[{2-[(2,6-dipyrrolidin-1-ylpyrimidin-4-yl)amino]ethyl}(methyl)amino]ethyl}amino)carbonothioyl]amino}benzenesulfonamide], the melting point was 129 °C. In series [1], the IC50 was at most 1 µM. For `CN(CCNC(=S)Nc1cccc(F)c1)CCNc1cc(N2CCCC2)nc(N2CCCC2)n1` [Example 39, N-{2-[{2-[(2,6-dipyrrolidin-1-ylpyrimidin-4-yl)amino]ethyl}(methyl)amino]ethyl}-N′-(3-fluorophenyl)thiourea], the melting point was 118 to 120 °C. The IC50 in series [1] was at most 1 µM. Take `S=C(NCCCCCNc1cc(N2CCCC2)nc(N2CCCC2)n1)Nc1ccc(Cl)cc1` [Example 58, N-(4-chlorophenyl)-N′-{5-[(2,6-dipyrrolidin-1-ylpyrimidin-4-yl)amino]pentyl}thiourea]: the melting point is 80 to 82 °C. Moreover, the IC50 in series [1] was at most 5 µM.

Regarding `CCN(CC)c1cc(NCCN(C)CCNC(=S)Nc2ccc(Cl)cc2)nc(N(CC)CC)n1` [Example 71, N-{2-[(2-{[2,6-bis(diethylamino)pyrimidin-4-yl]amino}ethyl)(methyl)amino]ethyl}-N′-(4-chlorophenyl)thiourea], the half-inhibitory concentration (IC50) in series [1] was at most 1 µM.

`CN(CCNC(=S)Nc1cc(F)cc(F)c1)CCNc1cc(N2CCCC2)nc(N2CCCC2)n1` [Example 41, N-(3,5-difluorophenyl)-N′-{2-[{2-[(2,6-dipyrrolidin-1-ylpyrimidin-4-yl)amino]ethyl}(methyl)amino]ethyl}thiourea] registered a melting point of 124 to 126 °C. Also, the IC50 in series [1] was at most 5 µM. For `CN(CCNC(=S)Nc1c(F)c(F)c(F)c(F)c1F)CCNc1cc(N2CCCC2)nc(N2CCCC2)n1` [Example 34, N-{2-[{2-[(2,6-dipyrrolidin-1-ylpyrimidin-4-yl)amino]ethyl}(methyl)amino]ethyl}-N′-(pentafluorophenyl)thiourea], the melting point lay in the range of 92 to 94 °C. The 50% inhibitory concentration (IC50) in series [1] is at most 5 µM. On the same counts, the results for `CN(CCNC(=S)NCC1CCCO1)CCNc1cc(N2CCCC2)nc(N2CCCC2)n1` (stereo not drawn) [Example 31, N-{2-[{2-[(2,6-dipyrrolidin-1-ylpyrimidin-4-yl)amino]ethyl}(methyl)amino]ethyl}-N′-(tetrahydrofuran-2-ylmethyl)thiourea] are 120 to 122 °C and at most 5 µM. On to `CN(CCNc1cc(N2CCCC2)nc(N2CCCC2)n1)CCN(C(N)=O)[C@@H]1CCc2ccccc2C1` [Example 11, N-{2-[{2-[(2,6-dipyrrolidin-1-ylpyrimidin-4-yl)amino]ethyl}(methyl)amino]ethyl}-N-[(2R)-1,2,3,4-tetrahydronaphthalen-2-yl]urea], for which the melting point was 93 to 95 °C.

Turning to `CCNC(=O)NCCN(C)CCNc1cc(N2CCCC2)nc(N2CCCC2)n1` [Example 18], in series [1], the IC50 is at most 5 µM.

Compound `CCN(CCN(C)CCNc1cc(N2CCCC2)nc(N2CCCC2)n1)C(N)=O` [Example 18, N-{2-[{2-[(2,6-dipyrrolidin-1-ylpyrimidin-4-yl)amino]ethyl}(methyl)amino]ethyl}-N-ethylurea] returned a melting point of 127 to 129 °C. Turning to `CN(CCNC(=O)Nc1ccc(Cl)c(C(F)(F)F)c1)CCNc1cc(N2CCCC2)nc(N2CCCC2)n1` [Example 7, N-[4-chloro-3-(trifluoromethyl)phenyl]-N′-{2-[{2-[(2,6-dipyrrolidin-1-ylpyrimidin-4-yl)amino]ethyl}(methyl)amino]ethyl}urea], the IC50 in series [1] was at most 1 µM. The compound `CN(CCNC(=NC#N)Nc1ccc(Cl)cc1)CCNc1cc(N2CCCC2)nc(N2CCCC2)n1` [Example 81, N-(4-chlorophenyl)-N″-cyano-N′-{2-[{2-[(2,6-dipyrrolidin-1-ylpyrimidin-4-yl)amino]ethyl}(methyl)amino]ethyl}guanidine] had a melting point of 120 to 122 °C. Also, the IC50 in series [1] is at most 1 µM.

As for `CN(CCNC(=S)Nc1ccc(S(N)(=O)=O)cc1)CCNc1cc(N2CCCC2)nc(N2CCCC2)n1` [Example 61, 4-{[({2-[{2-[(2,6-dipyrrolidin-1-ylpyrimidin-4-yl)amino]ethyl}(methyl)amino]ethyl}amino)carbonothioyl]amino}benzenesulfonamide], the melting point turned out to be 140 °C. In series [1], the IC50 was at most 1 µM. Turning to `CN(CCNC(=S)Nc1ccc(F)c(F)c1)CCNc1cc(N2CCCC2)nc(N2CCCC2)n1` [Example 67, N-(3,4-difluorophenyl)-N′-{2-[{2-[(2,6-dipyrrolidin-1-ylpyrimidin-4-yl)amino]ethyl}(methyl)amino]ethyl}thiourea], the melting point was 133 to 135 °C. For the same compound, in series [1], the IC50 was at most 1 µM. Consider `CN(CCNC(=S)Nc1ccc(Cl)cc1)CCNc1cc(N2CCCC2)nc(N2CCCC2)n1.Cl`, for which the melting point lay within 211 to 213 °C. In turn, `CN(CCCNC(=O)Nc1ccc(Cl)c(C(F)(F)F)c1)CCCNc1cc(N2CCCC2)nc(N2CCCC2)n1.Cl` registered a melting point of 115 to 117 °C. In the case of `CCN(CC)CCCCCNc1cc(N2CCCC2)nc(N2CCCC2)n1` [Example 6, N′-(2,6-dipyrrolidin-1-ylpyrimidin-4-yl)-N,N-diethylpentane-1,5-diamine], the IC50 in series [1] was at most 5 µM.

As for `CNCCCN(C)CCCN(C)c1cc(N2CCCC2)nc(N2CCCC2)n1` [Example 3, N-(2,6-dipyrrolidin-1-ylpyrimidin-4-yl)-N,N′-dimethyl-N′-[3-(methylamino)propyl]propane-1,3-diamine], the IC50 in series [1] was at most 5 µM. The same measure, in the same setting: with `NCCCCCNc1cc(N2CCCC2)nc(N2CCCC2)n1` [Example 4, N-(2,6-dipyrrolidin-1-ylpyrimidin-4-yl)pentane-1,5-diamine] the figure was at most 5 µM. `CN(CCNC(=S)Nc1ccc(Cl)cc1)CCNc1cc(N2CCOCC2)nc(N2CCOCC2)n1` [Example 66, N-(4-chlorophenyl)-N′-{2-[{2-[(2,6-dimorpholin-4-ylpyrimidin-4-yl)amino]ethyl}(methyl)amino]ethyl}thiourea] displayed a melting point of 81 to 83 °C.
